Reference: US12185750B2, “Acyl nornicotines reduce sensory irritation in tobacco and nicotine products” (Altria Client Services LLC, priority 2015, dated 2025)
Like-named read-outs stand apart in the source and are kept apart here.

Columns and labels:
[1] = target: T1, human nicotinic acetylcholine receptor α3β4 (nACHR α3β4) (Homo sapiens, UniProt P30926+P32297); assay: calcium influx in HEK293 cells expressing nACHR α3β4, co-applied with nicotine; assay type: cell-based
T1 construct: expressed in transfected cells; host or cells: HEK293
Procedure: Human cell line HEK293 were designed to express human nicotinic acetylcholine receptor α3β4 (nACHR α3β4), which is a receptor associated with sensory irritation. These cells were plated on 96 well plates and acyl nornicotines were co-applied with a concentration of nicotine sufficient to yield 100% cell activation of the receptor. The influx of calcium into the cell is measured as an indicator of receptor activation.

[2] = test system: nicotine triggered release of CGRP in tracheal tissue; assay: nicotine triggered CGRP release in mouse tracheal tissue; assay type: cell-based
Procedure: Mouse tracheal tissue samples are treated with N-Hexanoylnornicotine (10 μM) for 10 minutes. After five minutes of exposure, Nicotine (100 μM) is added to the tracheal tissue samples for the remaining five minutes of N-Hexanoylnornicotine exposure. CGRP release is measured for 15 minutes starting at the time point of N-Hexanoylnornicotine exposure. Control samples are exposed to Nicotine (100 μM) without the addition of N-Hexanoylnornicotine. […]
(§1) FIGS. 2-8 show the results of studies on the effect of acyl nornicotine on nicotine triggered release of CGRP. CGRP is a biomarker of sensory irritation, specifically a marker of neurogenic inflammation. Tracheal or buccal mouse tissue samples were each treated with N-Hexanoylnornicotine or N-Octanoylnornicotine prior to exposure to nicotine or potassium chloride (KCl), used as a control. The test compounds were provided in a synthetic interstitial fluid and the release of CGRP was measured.

[3] = test system: nicotine triggered release of CGRP in buccal tissue; assay: nicotine triggered CGRP release in mouse buccal tissue; assay type: cell-based; conditions: for effect on buccal nicotine response (CGRP release): 20 mM compound, Nicotine 20 mM, equimolar, FIG. 8
Procedure: Mouse buccal tissue samples are treated with 10 μM or 1 μM of N-Hexanoylnornicotine for 10 minutes. After five minutes of exposure, Nicotine (10 mM) is added to the buccal tissue samples for five minutes. CGRP release is measured for 15 minutes starting at the time point of N-Hexanoylnornicotine exposure. Control samples are exposed to Nicotine (10 mM) without the addition of N-Hexanoylnornicotine.
Mouse buccal tissue samples were treated with N-Hexanoylnornicotine (20 mM) or N-Octanoylnornicotine (20 mM) for 10 minutes. After 5 minutes of exposure, Nicotine (20 mM) was added to the […] tissue samples for five minutes. CGRP release is measured for 20 minutes starting five minutes prior to the time point of N-Octanoylnornicotine and N-Hexanoylnornicotine exposure. Control samples are exposed to Nicotine (20 mM) without the addition of N-Octanoylnornicotine or N-Hexanoylnornicotine.
as §1

[4] = half-tongue test: acyl nornicotine pre-treatment before nicotine solution; assay type: in vivo, human
Procedure: The effect of pre-treatment with acyl nornicotine on sensory irritation from nicotine was tested using half-tongue test. N-Octanoylnornicotine was applied to tongues of human volunteers prior to application of a nicotine solution. Randomized sides of tongues were selected for application of liquid test sample or liquid control sample on filter paper. The liquid test sample or liquid control sample was applied to one side of a subject's tongue or the other. Blinded N-Octanoylnornicotine or water on filter paper was applied to the subject's tongue for 2 minutes, and then removed. […] After a 30 second wait, filter papers with added nicotine solutions were applied to the spots on the tongue where the pre-treatment filter papers had been applied. Over the following 2 minutes, subjects were asked to note sensory perceptions. Samples containing N-Octanoylnornicotine were at 10% of the level of the nicotine challenge samples.

[5] = test system: tracheal potassium chloride (KCl) response; assay: KCl triggered CGRP release in mouse tracheal tissue (control); assay type: cell-based; conditions: 10 μM compound, KCl 60 mM, FIG. 3
Procedure: As in FIG. 2, mouse tracheal tissue samples are treated with N-Hexanoylnornicotine (10 μM) for 10 minutes. After five minutes of exposure, KCl (60 mM) is added to the tracheal tissue samples for the remaining five minutes N-Hexanoylnornicotine exposure. CGRP release is measured for 15 minutes starting at the time point of N-Hexanoylnornicotine exposure. Control samples are exposed to KCl (60 mM) without the addition of N-Hexanoylnornicotine.
as §1

[6] = HEK293 nACHR α3β4, calcium influx

T1 sequence (P32297 32-505): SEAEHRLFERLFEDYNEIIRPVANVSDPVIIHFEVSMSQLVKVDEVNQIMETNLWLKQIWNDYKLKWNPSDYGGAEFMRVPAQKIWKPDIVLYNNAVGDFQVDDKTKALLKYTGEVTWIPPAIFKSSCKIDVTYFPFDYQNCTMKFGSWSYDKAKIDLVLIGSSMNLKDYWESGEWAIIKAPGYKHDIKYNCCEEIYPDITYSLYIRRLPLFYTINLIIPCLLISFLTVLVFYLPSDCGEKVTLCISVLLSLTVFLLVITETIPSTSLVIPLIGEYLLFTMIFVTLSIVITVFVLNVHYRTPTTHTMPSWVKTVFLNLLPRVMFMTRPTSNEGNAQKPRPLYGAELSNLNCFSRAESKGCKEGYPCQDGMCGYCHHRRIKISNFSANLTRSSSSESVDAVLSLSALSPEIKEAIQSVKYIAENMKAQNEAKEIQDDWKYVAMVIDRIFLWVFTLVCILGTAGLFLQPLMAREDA
T1 sequence (P30926 22-498): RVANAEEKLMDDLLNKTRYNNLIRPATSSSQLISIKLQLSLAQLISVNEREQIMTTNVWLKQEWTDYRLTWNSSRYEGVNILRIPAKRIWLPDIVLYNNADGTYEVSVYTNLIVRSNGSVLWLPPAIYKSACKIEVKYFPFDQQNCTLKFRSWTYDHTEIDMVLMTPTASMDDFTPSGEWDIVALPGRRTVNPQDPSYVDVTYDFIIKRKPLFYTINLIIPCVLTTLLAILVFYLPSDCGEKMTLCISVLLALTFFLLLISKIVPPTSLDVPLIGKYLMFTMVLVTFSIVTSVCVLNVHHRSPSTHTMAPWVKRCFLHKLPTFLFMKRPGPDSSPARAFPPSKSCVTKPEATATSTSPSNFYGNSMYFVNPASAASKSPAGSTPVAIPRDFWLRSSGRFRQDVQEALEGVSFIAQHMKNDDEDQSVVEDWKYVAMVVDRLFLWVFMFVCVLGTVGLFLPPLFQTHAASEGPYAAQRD

| Structure (SMILES) | IC50 [1] | calcium influx inhibited ([1]; 1:10 acyl nornicotine:nicotine) | calcium influx inhibited ([1]; 1:100 acyl nornicotine:nicotine) | Activation (threshold) [1, 6] | relative potency, C8 versus C6 acyl nornicotine ([1]; calcium influx, co-applied with nicotine) | effect on specific tracheal nicotinic response (CGRP release) ([2]; 100 μM compound, Nicotine 100 μM, equimolar, FIG. 6) | effect on basal tracheal response (CGRP release) ([2]; 100 μM compound, before nicotine, FIG. 6) | effect on specific and supramaximal tracheal nicotine response (CGRP release) ([2]; 10 mM compound, Nicotine 10 mM, equimolar, FIG. 7) | relative potency, C8 versus C6 acyl nornicotine ([2]; CGRP release in mouse tissue (tracheal/buccal not specified)) | effect on buccal nicotine response (CGRP release) [3] | sensation from the compound itself on the tongue ([4]; applied on filter paper for 2 minutes, human volunteers) | irritation/burn from nicotine after pre-treatment ([4]; compound at 10% of the level of the nicotine challenge, versus water side) | calcium influx inhibited ([1]; 1:1 acyl nornicotine:nicotine) | IC50 ([1]; HEK293 nACHR α3β4, calcium influx, v 70 μM nicotine, read-out: Inhibition (IC50 v 70 μM nicotine)) | effect on tracheal KCl response (CGRP release) [5] | effect on specific tracheal nicotine response (CGRP release) ([2]; 10 μM compound, Nicotine 100 μM, FIG. 2) | effect on tracheal supramaximal nicotine response (TRPA1/V1 mediated, CGRP release) ([2]; 10 μM compound, Nicotine 10 mM, FIG. 4) | effect on buccal supramaximal nicotine response (TRPA1/V1 mediated, CGRP release) ([3]; 10 μM compound, Nicotine 10 mM, FIG. 5) |
| --- | --- | --- | --- | --- | --- | --- | --- | --- | --- | --- | --- | --- | --- | --- | --- | --- | --- | --- |
| CCCCCCCC(=O)N1CCCC1c1cccnc1 (stereo not drawn) [N-Octanoylnornicotine] | 500 nM | 100% | 50% | 1 mM | more potent than shorter chain (C6) acyl nornicotine | abrogates the specific tracheal nicotinic response | lowers basal tracheal nicotine response | abrogates the specific and supramaximal nicotine response | more potent than a shorter chain (C6) acyl nornicotine | prevent the buccal nicotine response | tingling or burning sensation | obvious reduction in irritation/burn |  |  |  |  |  |  |
| CCCCCC(=O)N1CCCC1c1cccnc1 (stereo not drawn) [N-Hexanoylnornicotine] |  | 50% |  | 10 mM |  |  |  |  |  | prevent the buccal nicotine response |  |  | 100% | 5000 nM | does not change the KCl response | abolishes the specific tracheal nicotine response | does not change the tracheal supramaximal nicotine response | does not change the buccal supramaximal nicotine response |
